Results from patent publication US12384852B2, “Genetically modified NK-92 cells having a safety switch” (ImmunityBio, Inc., priority 2015, dated 2025).

Assays:
[1] = clinical studies; cited from earlier work
NK-92-TK-CD16-IL-2 cells = assay: Functionality of the TK suicide gene: ganciclovir treatment of mice carrying NK-92-TK-CD16-IL-2 cells; format: in vivo, SCID mice; conditions: ganciclovir 50 μg i.p. every other day, two or three doses; within 24 hours to 72 hours
Description: The mice in the first group are treated with two or three doses of ganciclovir (50 μg) intraperitoneally every other day. The mice in the second group are treated with placebo. […] Expansion of NK-92-TK-CD16-IL-2 cells continues to increase over time in mice treated with placebo.

SMILES | tolerability [1] | change in NK-92-TK-CD16-IL-2 cells (NK-92-TK-CD16-IL-2 cells)
CC[C@H](C(=O)N1CCCC[C@H]1C(=O)O[C@H](CCc1ccc(OC)c(OC)c1)c1cccc(OCC(=O)NCCNC(=O)COc2cccc([C@@H](CCc3ccc(OC)c(OC)c3)OC(=O)[C@@H]3CCCCN3C(=O)[C@@H](CC)c3cc(OC)c(OC)c(OC)c3)c2)c1)c1cc(OC)c(OC)c(OC)c1 [AP1903] | well tolerated | 
Nc1nc(O)c2ncn(COC(CO)CO)c2n1 [ganciclovir] |  | significant reduction
